Data published in US12297190B2, “Modulators of STING (stimulator of interferon genes)” (PFIZER INC., priority 2019, dated 2025).

target: R232-STING (Homo sapiens, UniProt Q86WV6, H232R); experiment: biochemical
Sequence (Q86WV6 155-341 H232R): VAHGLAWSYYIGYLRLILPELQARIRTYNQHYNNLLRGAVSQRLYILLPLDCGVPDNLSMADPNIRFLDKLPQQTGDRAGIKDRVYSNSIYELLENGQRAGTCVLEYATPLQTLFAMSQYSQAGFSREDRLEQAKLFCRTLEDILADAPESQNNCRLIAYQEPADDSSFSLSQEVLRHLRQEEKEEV

`CCn1nc(C)cc1-c1nnc(-c2cc(C(N)=O)cc3c2cnn3CCCCN2CCCCC2)[nH]1` [ZZZ043, 4-[5-(1-ethyl-3-methyl-1H-pyrazol-5-yl)-4H-1,2,4-triazol-3-yl]-1-[4-(piperidin-1-yl)butyl]-1H-indazole-6-carboxamide] and `CCn1nc(C)cc1-c1nnc(-c2cc(C(N)=O)cc3c2cnn3C(C)CN2CCCCC2)[nH]1` (centres unmarked) [ZZZ026, 4-[5-(1-ethyl-3-methyl-1H-pyrazol-5-yl)-4H-1,2,4-triazol-3-yl]-1-[1-(piperidin-1-yl)propan-2-yl]-1H-indazole-6-carboxamide] cannot be ordered by Ki: greater than 990 nM for the first, greater than 990 nM for the second.

Compared with `CCn1nc(C)cc1-c1nnc(-c2cc(C(N)=O)cc3c2cnn3CC[C@@H]2CCCN(C)C2)[nH]1` (racemic) [ZZZ042, 4-[5-(1-ethyl-3-methyl-1H-pyrazol-5-yl)-4H-1,2,4-triazol-3-yl]-1-{2-[(3S)-1-methylpiperidin-3-yl]ethyl}-1H-indazole-6-carboxamide], `CCn1nc(C)cc1-c1nnc(-c2cc(C(N)=O)cc3c2cnn3CCC2CCNCC2)[nH]1` [ZZZ073, 4-[5-(1-ethyl-3-methyl-1H-pyrazol-5-yl)-4H-1,2,4-triazol-3-yl]-1-[2-(piperidin-4-yl)ethyl]-1H-indazole-6-carboxamide] is lower in Ki: greater than 990 nM for the first, 650 nM for the second.

`CCn1nc(C)cc1-c1n[nH]c(-c2cc(C(N)=O)cc3c2cnn3CCN2CC(CO)OCC2C)n1` (centres unmarked) [ZZZ096, 4-[3-(1-ethyl-3-methyl-1H-pyrazol-5-yl)-1H-1,2,4-triazol-5-yl]-1-{2-[2-(hydroxymethyl)-5-methylmorpholin-4-yl]ethyl}-1H-indazole-6-carboxamide] and `CCn1nc(C)cc1-c1n[nH]c(-c2cc(C(N)=O)cc3c2cnn3CCN2C[C@H](O)[C@H]2C)n1` [ZZZ091, 4-[3-(1-ethyl-3-methyl-1H-pyrazol-5-yl)-1H-1,2,4-triazol-5-yl]-1-{2-[(2R,3S)-3-hydroxy-2-methylazetidin-1-yl]ethyl}-1H-indazole-6-carboxamide] are within 1.5-fold of each other in Ki: 861 nM for the first, 831 nM for the second.

`CCn1nc(C)cc1-c1n[nH]c(-c2cc(C(N)=O)cc3c2cnn3CCN2CC[C@H](OC)C2)n1` [ZZZ106, 4-[3-(1-ethyl-3-methyl-1H-pyrazol-5-yl)-1H-1,2,4-triazol-5-yl]-1-{2-[(3S)-3-methoxypyrrolidin-1-yl]ethyl}-1H-indazole-6-carboxamide] and `CCn1nc(C)cc1-c1n[nH]c(-c2cc(C(N)=O)cc3c2cnn3CCN2CC[C@@H](OC)C2)n1` [ZZZ111, 4-[3-(1-ethyl-3-methyl-1H-pyrazol-5-yl)-1H-1,2,4-triazol-5-yl]-1-{2-[(3R)-3-methoxypyrrolidin-1-yl]ethyl}-1H-indazole-6-carboxamide] are within 1.5-fold of each other in Ki: 944 nM for the first, 842 nM for the second.

`CCn1nc(C)cc1-c1nnc(-c2cc(C(N)=O)cc3c2cnn3C[C@H]2CCN(C3CC3)C2)[nH]1` (racemic) [ZZZ038, 1-{[(3S)-1-cyclopropylpyrrolidin-3-yl]methyl}-4-[5-(1-ethyl-3-methyl-1H-pyrazol-5-yl)-4H-1,2,4-triazol-3-yl]-1H-indazole-6-carboxamide] and `CCn1nc(C)cc1-c1nnc(-c2cc(C(N)=O)cc3c2cnn3CC2CCCN3CCCCC23)[nH]1` (centres unmarked) [ZZZ016, 4-[5-(1-ethyl-3-methyl-1H-pyrazol-5-yl)-4H-1,2,4-triazol-3-yl]-1-[(octahydro-2H-quinolizin-1-yl)methyl]-1H-indazole-6-carboxamide] are within 1.5-fold of each other in Ki: 928 nM for the first, 826 nM for the second.

`CCn1nc(CO)cc1-c1cnc(-c2cc(C(N)=O)cc3c2cnn3C)[nH]1` [ZZZ122, 4-{5-[1-ethyl-3-(hydroxymethyl)-1H-pyrazol-5-yl]-1H-imidazol-2-yl}-1-methyl-1H-indazole-6-carboxamide] and `CCn1nc(C)c(I)c1-c1nnc(-c2cc(C(N)=O)cc3c2cnn3C)[nH]1` [ZZZ053, 4-[5-(1-ethyl-4-iodo-3-methyl-1H-pyrazol-5-yl)-4H-1,2,4-triazol-3-yl]-1-methyl-1H-indazole-6-carboxamide] cannot be ordered by Ki: greater than 900 nM for the first, greater than 990 nM for the second.

`CCn1nc(C)cc1-c1nnc(-c2cc(C(N)=O)cc3c2cnn3CCOCCN(C)C)[nH]1` [ZZZ021, 1-{2-[2-(dimethylamino)ethoxy]ethyl}-4-[5-(1-ethyl-3-methyl-1H-pyrazol-5-yl)-4H-1,2,4-triazol-3-yl]-1H-indazole-6-carboxamide] and `CCn1nc(C)cc1-c1nnc(-c2cc(C(N)=O)cc3nn(CCN(C)C)cc23)[nH]1` [ZZZ006, 2-[2-(dimethylamino)ethyl]-4-[5-(1-ethyl-3-methyl-1H-pyrazol-5-yl)-4H-1,2,4-triazol-3-yl]-2H-indazole-6-carboxamide] cannot be ordered by Ki: greater than 990 nM for the first, greater than 990 nM for the second.

Compared with `CCn1nc(C)c(C(F)(F)F)c1-c1nnc(-c2cc(C(N)=O)cc3c2cnn3C)[nH]1` [ZZZ048, 4-{5-[1-ethyl-3-methyl-4-(trifluoromethyl)-1H-pyrazol-5-yl]-4H-1,2,4-triazol-3-yl}-1-methyl-1H-indazole-6-carboxamide], `CCn1nc(C)c(F)c1-c1nnc(-c2cc(C(N)=O)cn3cncc23)[nH]1` [ZZZ128, 8-[5-(1-ethyl-4-fluoro-3-methyl-1H-pyrazol-5-yl)-4H-1,2,4-triazol-3-yl]imidazo[1,5-a]pyridine-6-carboxamide] is 1.6-fold lower in Ki: 912 nM for the first, 556 nM for the second. The second binds more tightly here.

`CCCN1CCC[C@@H]1Cn1ncc2c(-c3nnc(-c4cc(C)nn4CC)[nH]3)cc(C(N)=O)cc21` (racemic) [ZZZ025, 4-[5-(1-ethyl-3-methyl-1H-pyrazol-5-yl)-4H-1,2,4-triazol-3-yl]-1-{[(2R)-1-propylpyrrolidin-2-yl]methyl}-1H-indazole-6-carboxamide] and `CCn1nc(C)cc1-c1nnc(-c2cc(C(N)=O)cc3c2cnn3CC[C@@H]2COCCN2)[nH]1` [ZZZ059, 4-[5-(1-ethyl-3-methyl-1H-pyrazol-5-yl)-4H-1,2,4-triazol-3-yl]-1-{2-[(3R)-morpholin-3-yl]ethyl}-1H-indazole-6-carboxamide] are within 1.5-fold of each other in Ki: 714 nM for the first, 948 nM for the second.

`CCn1nc(C)cc1-c1n[nH]c(-c2cc(C(N)=O)cc3c2cnn3CCN2CCOCC2(C)C)n1` [ZZZ102, 1-[2-(3,3-dimethylmorpholin-4-yl)ethyl]-4-[3-(1-ethyl-3-methyl-1H-pyrazol-5-yl)-1H-1,2,4-triazol-5-yl]-1H-indazole-6-carboxamide] and `CCn1nc(C)cc1-c1n[nH]c(-c2cc(C(N)=O)cc3c2cnn3CCN(C)CCO)n1` [ZZZ109, 4-[3-(1-ethyl-3-methyl-1H-pyrazol-5-yl)-1H-1,2,4-triazol-5-yl]-1-{2-[(2-hydroxyethyl)(methyl)amino]ethyl}-1H-indazole-6-carboxamide] are within 1.5-fold of each other in Ki: 900 nM for the first, 954 nM for the second.

Going from `CCn1nc(C)c(F)c1-c1nnc(-c2cc(C(N)=O)cn3c(C(=O)O)ncc23)[nH]1` [ZZZ057, 6-carbamoyl-8-[5-(1-ethyl-4-fluoro-3-methyl-1H-pyrazol-5-yl)-4H-1,2,4-triazol-3-yl]imidazo[1,5-a]pyridine-3-carboxylic acid] to `CCn1nc(C)cc1-c1n[nH]c(-c2cc(C(N)=O)cc3c2cnn3CCN(C)CC#N)n1` [ZZZ101, 1-{2-[(cyanomethyl)(methyl)amino]ethyl}-4-[3-(1-ethyl-3-methyl-1H-pyrazol-5-yl)-1H-1,2,4-triazol-5-yl]-1H-indazole-6-carboxamide], the Ki falls from greater than 990 nM to 509 nM. The second binds more tightly here.

`CCn1nc(C)cc1-c1nc(-c2nc(C(N)=O)cc3c2cnn3C)n(CCN)n1` [ZZZ047, 4-[1-(2-aminoethyl)-3-(1-ethyl-3-methyl-1H-pyrazol-5-yl)-1H-1,2,4-triazol-5-yl]-1-methyl-1H-pyrazolo[4,3-c]pyridine-6-carboxamide] gave a Ki greater than 90 nM.
